Consider ten compounds from US20150018427A1, “COMPOUNDS FOR TREATING PARVOVIRUS INFECTION” (ARATANA THERAPEUTICS NV, priority 2012, published 2015).

Where a name gives a salt, the structure may show the parent alone.

By EC50 is commonly meant the concentration that produces a half-maximal response.

Assay [1] relates to feline panleukopenia virus (FPV). Put plainly: CPE visual scoring assay, FPV in CrFK cells. It counts as cell-based. How it is done:
Crandell Reese Feline Kidney (CrFK) cells were grown in Dulbecco minimum essential medium (DMEM, Life Technologies) containing 1% sodium bicarbonate (Life Technologies), 1% L-Glutamine (Life Technologies) and 5% fetal calf serum (FCS, Biochrom). In a 96 well plate a serial dilution of compound was added together with 10 TCID50 of feline panleukopenia virus (FPV) or 10 TCID50 canine parvovirus 2c (CPV-2c) and 20,000 CrFK cells. Infected cells without any added compound were used as positive controls (virus control) and uninfected cells were used as negative controls (cell control). The cells were incubated for 4 days and viral cytopathogenic effect (CPE) was scored visually. EC50-values were determined as the concentration of compound that inhibited 50% of the viral replication as compared with virus control.
2-methyladamantan-2-amine HCl and 2-ethyladamantan-2-amine HCl were dissolved in Dulbecco's phosphate buffered saline (DPBS) at a concentration of 10 mM. The inhibition experiments and the preparation thereof were performed as described above for Example 2. […]

The subject of assay [2] is canine parvovirus 2c (CPV-2c). Put plainly: CPE visual scoring assay, CPV-2c in CrFK cells. Format: cell-based.
In assay [3] the test system is canine parvovirus 2c (CPV-2c). Nature of the assay: CPV-2c DNA reduction by quantitative PCR, CrFK cells. Format: cell-based.
Assay [4] concerns feline panleukopenia virus (FPV). Put plainly: FPV DNA reduction by quantitative PCR, CrFK cells. It counts as cell-based. The settings on record: read-out: EC50-value (μM) for FPV, DNA reduction. The protocol: (§1) Amantadine, amantadine hydrochloride (HCl) and memantine were dissolved in Dulbecco's phosphate buffered saline (DPBS) at a concentration of 10 mM. Crandell Reese Feline Kidney (CrFK) cells were grown in Dulbecco minimum essential medium (DMEM, Life Technologies) containing 1% sodium bicarbonate (Life Technologies), 1% L-Glutamine (Life Technologies) and 5% fetal calf serum (FCS, Biochrom). In a 24 well plate 100,000 CrFK cells were seeded on day 0. On day 1, the medium was removed and 10 TCID50 of FPV or 10 TCID50 CPV-2c was added and incubated for 2 h at 37° C. in humidified conditions. After incubation, medium was removed and CrFK cells were washed with DPBS. Subsequently, a serial dilution of compound in culture medium was added (250, 50, and 10 μM). Infected cells without any added compound were used as positive controls (virus control) and uninfected cells were used as negative controls (cell control). The cells were incubated at 37° C. in humidified conditions. After 4 days of incubation medium containing newly produced virus particles was collected and viral titers were determined using CrFK cells. In addition, 200 μL of supernatant was extracted to obtain FPV or CPV-2c DNA using the QIAamp DNA extraction kit (Qiagen). The extracted FPV DNA was detected by a real time PCR using the Taqman Fast Universal mastermix (Life Technologies) and the standard Fast cycling protocol using the StepOnePlus real time device (Applied Biosystems). In the PCR mixture an optimized 900 nM of each forward and reverse primer was used and 250 nM FAM-BHQ1 labeled probe as published by Decaro et al. (J. Virol. Methods 2008, 147, 67-71). EC50 values were determined as the concentration of compound that inhibited 50% of the viral DNA.
2-methyladamantan-2-amine HCl and 2-ethyladamantan-2-amine HCl were dissolved in Dulbecco's phosphate buffered saline (DPBS) at a concentration of 10 mM. The inhibition experiments and the preparation thereof were performed as described above for Example 2.

Assay [5] has as its system canine parvovirus 2c (CPV-2c). Nature of the assay: CPV-2c titer reduction, titration of produced virus on CrFK cells. Format: cell-based.
Assay [6] deals with feline panleukopenia virus (FPV). Put plainly: FPV titer reduction, titration of produced virus on CrFK cells. It counts as cell-based. How it is done:
as §1
Reduction of CPV-2c and FPV titers under increasing concentrations of amantadine hydrochloride (HCl) and memantine are shown in Table 3a and 3b, respectively. Viral titers are determined by titration of the produced virus on CrFK cells and incubated for 5 days. The obtained titers where compared with the control (virus production without addition of compound).

Assay [7] deals with canine parvovirus type 2 (CPV2). Nature of the assay: Treatment of dog naturally infected with canine parvovirus type 2. The settings on record: beagle puppy, CPV2 PCR-positive, 10 mg/kg twice daily for 2 weeks. It counts as in vivo.
Where [8] appears, read: Feline panleukopenia virus, CRFK, 96 h, Table 1, CPE visual scoring, CrFK cells, 10 TCID50, 4 days, read-out: EC50-value (μM) for FPV.
[9] abbreviates: Canine parvovirus, 96 h, Table 1, CPE visual scoring, CrFK cells, 10 TCID50, 4 days, read-out: EC50-value (μM) for CPV-2c.
Setting [10] is: Feline panleukopenia virus, CRFK, read-out: EC50-value (μM) for FPV, Table 4a, CPE visual scoring assay.
Setting [11] is: Canine parvovirus, CRFK, Table 4a, CPE visual scoring assay, read-out: EC50-value (μM) for CPV-2c.
The mark [12] stands for this setting: CRFK, Table 4b, quantitative PCR, read-out: EC50-value (μM) for CPV-2c, DNA reduction.
[13] abbreviates: Feline panleukopenia virus, CRFK, Table 4b, quantitative PCR.
Setting [14] is: 96 h, Table 2, viral DNA in supernatant by quantitative PCR, CrFK cells, 4 days, read-out: EC50-value (μM) for CPV-2c, DNA reduction.
The mark [15] stands for this setting: Canine parvovirus, CRFK, 96 h, read-out: EC50-value (μM) for CPV-2c, Table 1, CPE visual scoring, CrFK cells, 10 TCID50, 4 days.
The mark [16] stands for this setting: Feline panleukopenia virus, CRFK, 96 h, Table 2, viral DNA in supernatant by quantitative PCR, CrFK cells, 4 days.

In the case of `NCC12CC3CC(CC(C3)C1)C2` [1-adamantanemethylamine], the EC50 in assay [1] (setting [8]) and in assay [2] (setting [9]) was more than 250 µM each time.
In the case of `NC1C2CC3CC(C2)CC1C3` (centres unmarked) [2-adamantylamine HCl, 2-adamantylamine hydrochloride], the figures for the EC50 in assay [1] (setting [8]) and in assay [2] (setting [9]) were 17.3 µM and 5.12 µM, respectively.
As to `CCC1(N)C2CC3CC(C2)CC1C3` (centres unmarked) [2-ethyladamantan-2-amine], the EC50 in assay [1] (setting [10]) was 2.42 µM; in assay [2] (setting [11]), 4.2 µM; in assay [3] (setting [12]) it was 2.44 µM; in assay [4] (setting [13]), 1.31 µM.
For the compound `CC1(N)C2CC3CC(C2)CC1C3` (centres unmarked) [2-methyladamantan-2-amine], the EC50 in assay [1] (setting [10]) is 1.95 µM; in assay [2] (setting [11]), 2.25 µM; in assay [3] (setting [12]) it was 1.14 µM; in assay [4] (setting [13]), less than 0.781 µM.
In the case of `NC12CC3CC(C1)CC(O)(C3)C2` [3-amino-1-amantadol], the EC50 is more than 250 µM in assay [1] (Table 1, CPE visual scoring, CrFK cells, 10 TCID50, 4 days, read-out: EC50-value (μM) for FPV) and more than 250 µM in assay [2] (Table 1, CPE visual scoring, CrFK cells, 10 TCID50, 4 days, read-out: EC50-value (μM) for CPV-2c).
In the case of `Cl.NC12CC3CC(CC(C3)C1)C2` [Amantadine HCl, 1-Aminoadamantane hydrochloride], the “Titer reduction of CPV-2c, log10 reduction compared with control” value is given as 0.50 log10 in assay [5] (10 μM compound), 2.71 log10 in assay [5] (50 μM compound) and 2.71 log10 in assay [5] (250 μM compound). Further, the “Titer reduction of FPV, log10 reduction compared with control” value (shortened to “Titer reduction of FPV, log10 reduction”) is 0 log10 in assay [6] (10 μM compound), 1.50 log10 in assay [6] (50 μM compound) and 2.44 log10 in assay [6] (250 μM compound). In addition, the EC50 in assay [1] (Table 1, CPE visual scoring, CrFK cells, 10 TCID50, 4 days, hydrochloride, read-out: EC50-value (μM) for FPV) is 33.3 µM; in assay [2] (setting [9]), 14 µM; in assay [3] (setting [14]) it was 6.59 µM; in assay [4] (Table 2, viral DNA in supernatant by quantitative PCR, CrFK cells, 4 days, hydrochloride), 30.1 µM. In addition, the “Clinical signs of parvovirus infection” value in assay [7] is reported as “improved from day 3 onwards”. For the same compound, the “Recovery after 2 weeks of treatment” value in assay [7] is recorded as “recovered completely”.
Consider `NC12CC3CC(CC(C3)C1)C2` [Amantadine, amantadine], for which the “Titer reduction of CPV-2c, log10 reduction compared with control” value in assay [5] (10 μM compound) worked out at 0 log10; in assay [5] (50 μM compound) it was 2.23 log10; in assay [5] (250 μM compound) it was 2.23 log10. The “Titer reduction of FPV, log10 reduction” value in assay [6] (10 μM compound) was 0 log10; in assay [6] (50 μM compound) it was 0.48 log10; in assay [6] (250 μM compound) it was 1.43 log10. Further, the EC50 in assay [1] (setting [8]) was 18.7 µM; in assay [2] (setting [15]) it was 22.6 µM; in assay [3] (CRFK, 96 h, read-out: EC50-value (μM) for CPV-2c, DNA reduction, Table 2, viral DNA in supernatant by quantitative PCR, CrFK cells, 4 days) it was 53.5 µM; in assay [4] (setting [16]) it was 57.1 µM.
With `CC12CC3CC(C)(C1)CC(N)(C3)C2` [Memantine, memantine], the “Titer reduction of CPV-2c, log10 reduction compared with control” value in assay [5] (10 μM compound) came out at 0 log10; in assay [5] (50 μM compound), 0.50 log10; in assay [5] (250 μM compound) it was 1.55 log10. The “Titer reduction of FPV, log10 reduction” value in assay [6] (10 μM compound) is listed as 0 log10; in assay [6] (50 μM compound) it was 0.71 log10; in assay [6] (250 μM compound), 1.41 log10. In addition, the EC50 in assay [1] (setting [8]) stood at 23.3 µM; in assay [2] (setting [9]), 23.9 µM; in assay [3] (setting [14]) it was 17.9 µM; in assay [4] (setting [16]), 42.6 µM.
Take `CNC12CC3CC(CC(C3)C1)C2` [N-methyl-1-adamantylamine]: the EC50 in assay [1] (setting [8]) and in assay [2] (setting [9]) was more than 250 µM each time.
With `CC(N)C12CC3CC(CC(C3)C1)C2` (centres unmarked) [Rimantadine, rimantadine], the EC50 in assay [1] (setting [8]) and in assay [2] (setting [15]) was more than 250 µM each time.
